Consider 1 compound from patent US12410448B2, “Nanoparticle compositions containing sugar functionalized nucleic acid carriers” (TIBA Biotech LLC, priority 2021, dated 2025).

Series [1] relates to SEAP expression. Nature of the series: In vivo SEAP production, deoxy sugar dendrons. The arrangement: species or system mice. Particulars: FIG. 4 legend; SEAP mRNA nanoparticles. As for the experimental part: To test formulations of different monosaccharides based dendrons, the secreted embryonic alkaline phosphatase SEAP reporter system was used. For in vivo tests, mice were injected with nanoparticles at a dose of 5 ug of SEAP mRNA, and 16 hrs later, serum was collected from the mice. The amount of […] using the Invitrogen NovaBright™ Phospha-Light™ EXP Assay kits for SEAP detection according to the manufacturer's protocol. The amount of SEAP in the mouse serum samples are reported in Arbitrary Units (A.U.) as measured in a BioTek Synergy HTX microplate reader. Error bars are±S.E.M. Referring to FIG. 4b, it was observed that the SEAP amount was higher with the PE Dendron_G2-1 deoxyGlucose-A1-Ricinoleic than the other regioisomers: PE Dendron_G2-2 deoxyGlucose-A1-Ricinoleic and PE Dendron_G2-6 deoxyGlucose-A1-Ricinoleic. Referring to FIG. 5b, it was also observed that the SEAP amount was higher with the PE Dendron_G2-2 deoxyGlucose-A5-Ricinoleic than PE Dendron_G2-2 deoxyGlucose-A1-Ricinoleic indicating pKa of the ionizable delivery molecules influences the ability of the nanoparticles to deliver functionally active RNA.

In series [2] the test system is BHK cells. Kind of series: In vitro SEAP production. Format: cell-based. As for the experimental part: To test the ability of the nanoparticles formulated with different deoxy sugar based dendrons to express SEAP in vitro, BHK cells were treated with nanoparticles. Each well of a 12 well dish of BHKs was treated with 20 μL (approximately 1 μg) of each formulation product diluted into a final volume of 500 μL with a 1:1 Optimem:PBS mix. The nontreated wells had 500 μL of 50/50 PBS/OptiMEM. Twenty four hours post-treatment or transfection, conditioned media from each culture was collected. The amount of SEAP was quantified using the Invitrogen NovaBright™ Phospha-Light™ EXP Assay kits for SEAP detection according to the manufacturer's protocol. The amount of SEAP in the media samples are reported in Arbitrary Units (A.U.) as measured in a BioTek Synergy HTX microplate reader. Error bars are ±S.E.M. Referring to FIG. 4a, it was observed that the SEAP amount was higher with the PE Dendron_G2-2 deoxyGlucose-A1-Ricinoleic than the other regioisomers: PE Dendron_G2-1 deoxyGlucose-A1-Ricinoleic and PE Dendron_G2-6 deoxyGlucose-A1-Ricinoleic. […]

A short description of series [3]: Hydrodynamic size measurement by dynamic light scattering (DLS). Format: physicochemical. Particulars: nanoparticle composition with SEAP mRNA.
The test system of series [4] is SARS-CoV-2 Spike protein. Nature of the series: COVID-19 Spike trimer direct serum ELISA after vaccination. Format: in vivo. Background: ELISA stands for enzyme-linked immunosorbent assay.
Series [5] is described as follows: Encapsulation efficiency by Ribogreen assay. Format: physicochemical. Particulars: nanoparticle composition with SEAP mRNA, formulated at pH 5; dendron:DOPE:cholesterol:DMG-PEG2k 1:0.6:2.88:0.1. From the text: As used herein, “encapsulated” can refer to a nanoparticle that provides an active agent or therapeutic agent with full encapsulation, partial encapsulation, or both. In an embodiment, the therapeutic agent is a nucleic acid (as a non-limiting example, a messenger RNA), In a preferred embodiment, the nucleic acid is fully encapsulated in the nanoparticle. In the context of nucleic acid therapeutic agents, full encapsulation may be determined by a Ribogreen® assay. RiboGreen® is an ultra-sensitive fluorescent nucleic acid stain for quantitating oligonucleotides and single-stranded DNA or RNA in solution (available from Thermo Fisher Scientific-US).
Nanoparticles containing the deoxy sugar-modified polyesteramine dendron (e.g PE Dendron_G2-2 deoxyGlucose-A1-Ricinoleic):DOPE:cholesterol:DMG-PEG2k at molar ratios of 1:0.6:2.88:0.1 were formulated using NanoAssembir Benchtop (Precision NanoSystems Inc, Vancouver, BC, Canada)). RNA was diluted with DNase/RNase-Free, endotoxin free distilled water and sterile citrate buffer to a final desired pH. […] Encapsulation efficiency was measured to be 95% for the nanoparticle composition containing PE Dendron_G2-2 deoxyGlucose-A1-Ricinoleic and SEAP mRNA (formulated at pH 5) using Ribogreen® assay (Geall et al. 10.1073/pnas.1209367109 which is incorporated herein by reference as if fully set forth). […]

For the compound `CCCCCC[C@H](O)C/C=C\CCCCCCCC(=O)NCCCN(C)CCCNC(=O)OCC(C)(COC(=O)NCCCN(C)CCCNC(=O)CCCCCCC/C=C\C[C@@H](O)CCCCCC)C(=O)OCC(C)(COC(=O)C(C)(COC(=O)NCCCN(C)CCCNC(=O)CCCCCCC/C=C\C[C@@H](O)CCCCCC)COC(=O)NCCCN(C)CCCNC(=O)CCCCCCC/C=C\C[C@@H](O)CCCCCC)C(=O)OCc1cn([C@H]2C(O)O[C@H](CO)[C@@H](O)[C@@H]2O)nn1` (some centres unmarked), the “SEAP protein production in vivo” value in series [1] is on record as “resulted in SEAP protein production”. For the same compound, the “SEAP amount in conditioned media” value in series [2] (FIG. 4a, BHK cells, 24 h, about 1 μg, compared with regioisomers 1 deoxyGlucose-A1 and 6 deoxyGlucose-A1) is given as “higher”. The “SEAP protein production in vitro” value in series [2] (FIG. 4 legend, SEAP mRNA nanoparticles) was “resulted in SEAP protein production”. Further, in series [3], the “Nanoparticle size at strongest intensity (Z average, DLS)” value was found to be 113.3 nm·days. The “Polydispersity index of size distribution” value in series [3] (single peak) is listed as “low”. In series [4] (compared with Dlin-MC3-DMA control), the “Immunogenicity upon IM administration (anti-Spike IgG titer)” value is given as “superior”. The “Endpoint dilution titer of serum anti-Spike IgG” value in series [4] (compared with PE Dendron_G2-2 deoxyGlucose-A5-Ricinoleic) is given as “higher”. The Encapsulation efficiency in series [5] is listed as 95%.
